According to the Kinase Knowledgebase extract (Sharma et al. 2016):

Experiments:
PIK3CA (human) = PIK3CA (human) (UniProt P42336); test: Enzyme Assay
PIK3CD (Human) = PIK3CD (Human) (UniProt O00329); test: Enzyme Assay
Sequence of PIK3CD (Human) (O00329 whole entry, looked up): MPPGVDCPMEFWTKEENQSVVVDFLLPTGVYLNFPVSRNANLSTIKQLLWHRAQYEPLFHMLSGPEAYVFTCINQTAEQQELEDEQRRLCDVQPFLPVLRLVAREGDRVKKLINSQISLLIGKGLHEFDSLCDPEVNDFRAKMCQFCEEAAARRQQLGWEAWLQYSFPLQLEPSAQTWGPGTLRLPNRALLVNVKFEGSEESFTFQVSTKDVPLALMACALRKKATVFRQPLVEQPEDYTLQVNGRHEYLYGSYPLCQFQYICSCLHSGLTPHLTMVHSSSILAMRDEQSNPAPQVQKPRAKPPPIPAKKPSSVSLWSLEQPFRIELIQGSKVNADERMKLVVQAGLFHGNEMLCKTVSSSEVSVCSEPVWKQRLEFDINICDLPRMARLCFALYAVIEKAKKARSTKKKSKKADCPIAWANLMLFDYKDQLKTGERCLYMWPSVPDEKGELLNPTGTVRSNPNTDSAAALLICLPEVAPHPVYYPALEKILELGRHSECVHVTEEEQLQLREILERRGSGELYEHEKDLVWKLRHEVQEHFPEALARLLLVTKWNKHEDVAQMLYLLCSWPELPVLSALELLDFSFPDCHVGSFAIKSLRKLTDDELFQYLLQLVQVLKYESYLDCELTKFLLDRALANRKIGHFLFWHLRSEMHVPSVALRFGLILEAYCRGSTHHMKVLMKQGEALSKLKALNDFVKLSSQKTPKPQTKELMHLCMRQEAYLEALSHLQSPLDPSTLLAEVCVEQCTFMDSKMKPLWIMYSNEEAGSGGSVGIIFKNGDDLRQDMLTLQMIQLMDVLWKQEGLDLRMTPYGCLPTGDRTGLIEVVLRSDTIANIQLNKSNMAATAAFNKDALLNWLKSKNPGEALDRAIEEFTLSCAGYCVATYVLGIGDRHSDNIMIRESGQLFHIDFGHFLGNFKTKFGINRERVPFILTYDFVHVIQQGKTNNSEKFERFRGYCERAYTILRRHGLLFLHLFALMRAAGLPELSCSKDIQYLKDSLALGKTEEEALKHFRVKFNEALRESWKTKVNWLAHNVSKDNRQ

Sequence of PIK3CA (human) (P42336 whole entry, looked up): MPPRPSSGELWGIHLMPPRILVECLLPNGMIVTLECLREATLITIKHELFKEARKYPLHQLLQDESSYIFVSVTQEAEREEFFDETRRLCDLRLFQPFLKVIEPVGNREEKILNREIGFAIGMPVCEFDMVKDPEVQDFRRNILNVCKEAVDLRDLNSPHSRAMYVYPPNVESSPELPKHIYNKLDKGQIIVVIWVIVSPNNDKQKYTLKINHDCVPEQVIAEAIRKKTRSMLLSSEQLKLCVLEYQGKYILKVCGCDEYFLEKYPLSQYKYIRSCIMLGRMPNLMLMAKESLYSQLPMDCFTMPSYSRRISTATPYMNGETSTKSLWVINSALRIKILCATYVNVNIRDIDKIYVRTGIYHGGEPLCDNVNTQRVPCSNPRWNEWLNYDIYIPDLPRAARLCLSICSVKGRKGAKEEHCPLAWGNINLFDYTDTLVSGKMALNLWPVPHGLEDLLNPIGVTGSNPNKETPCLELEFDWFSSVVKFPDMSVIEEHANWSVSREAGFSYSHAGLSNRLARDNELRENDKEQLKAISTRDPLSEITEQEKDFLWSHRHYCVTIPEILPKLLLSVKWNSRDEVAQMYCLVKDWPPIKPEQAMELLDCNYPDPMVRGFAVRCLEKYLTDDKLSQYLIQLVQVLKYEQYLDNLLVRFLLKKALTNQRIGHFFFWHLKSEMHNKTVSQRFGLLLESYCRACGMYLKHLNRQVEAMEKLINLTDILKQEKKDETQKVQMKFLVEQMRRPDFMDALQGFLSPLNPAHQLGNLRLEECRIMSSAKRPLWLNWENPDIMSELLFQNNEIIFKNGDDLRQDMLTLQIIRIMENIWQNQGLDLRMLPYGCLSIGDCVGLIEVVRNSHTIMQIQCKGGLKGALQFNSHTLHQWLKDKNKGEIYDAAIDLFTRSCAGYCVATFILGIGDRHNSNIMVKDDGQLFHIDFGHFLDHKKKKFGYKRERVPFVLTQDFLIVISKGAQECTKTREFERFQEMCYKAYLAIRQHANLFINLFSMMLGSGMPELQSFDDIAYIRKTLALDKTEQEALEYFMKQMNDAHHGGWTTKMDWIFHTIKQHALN

Compound	IC50 (PIK3CA (human)) [nM]	IC50 (PIK3CD (Human)) [nM]
Cc1cccc2cc(Cn3nc(-c4cc(O)cc(F)c4)c4c(N)ncnc43)n(-c3ccccc3)c(=O)c12	100 to 1000	–
Cc1cccc2cc(Cn3nc(-c4ccc5nc(N)[nH]c5c4)c4c(N)ncnc43)n(-c3ccccc3)c(=O)c12	–	< 100
Cc1cccnc1-n1c(Cn2nc(-c3cccc(O)c3)c3c(N)ncnc32)cc2ccccc2c1=O	–	100 to 1000
Cc1cccc2cc([C@H](C)Nc3nc(N)ncc3C(F)(F)F)n(-c3ccccc3)c(=O)c12	> 10000	< 100
Cc1cccnc1-n1c(Cn2nc(-c3cc(O)cc(F)c3)c3c(N)ncnc32)cc2cccc(C)c2c1=O	> 10000	–
Cc1cccc2cc([C@H](C)Nc3ncnc4[nH]cnc34)n(C3CCC3)c(=O)c12	–	< 100
Cc1cccc2cc(Cn3nc(-c4cccc(O)c4)c4c(N)ncnc43)n(C3CCC3)c(=O)c12	> 10000	–
Cc1ccccc1-n1c(Cn2nc(C(=O)O)c3c(N)ncnc32)cc2cccc(C)c2c1=O	–	100 to 1000
Cc1cccc2cc(Cn3nc(-c4ccc5oc(N)nc5c4)c4c(N)ncnc43)n(-c3ccccc3)c(=O)c12	–	< 100
Cc1cccnc1-n1c(Cn2nc(-c3ccc4oc(N)nc4c3)c3c(N)ncnc32)cc2cccc(C)c2c1=O	–	< 100
Cc1cccc2cc([C@H](C)Nc3ncnc4[nH]cnc34)n(C(C)C)c(=O)c12	–	< 100
Cc1cccc2cc([C@H](C)Nc3ncnc4[nH]ncc34)n(-c3ccccc3)c(=O)c12	> 10000	100 to 1000
Cc1cccc2cc(Cn3nc(-c4cccc(O)c4)c4c(N)ncnc43)n(C3CCCCC3)c(=O)c12	> 10000	–
Cc1cccc2cc(C(C)Nc3ncnc4[nH]cnc34)n(-c3ccccc3)c(=O)c12 (stereo unspecified)	–	< 100
CCC(Nc1ncnc2[nH]cnc12)c1cc2cccc(C)c2c(=O)n1-c1ccc(F)cc1 (stereo unspecified)	–	< 100
CC(=O)c1nn(Cc2cc3cccc(C)c3c(=O)n2-c2ccccc2)c2ncnc(N)c12	> 10000	100 to 1000
Cc1cccc2cc([C@H](C)Nc3nc(F)nc4[nH]cnc34)n(-c3ccccc3)c(=O)c12	–	< 100
Cc1cccc2cc([C@H](C)Nc3ncnc4[nH]ccc34)n(-c3ccccc3)c(=O)c12	> 10000	< 100
Cc1ccccc1-n1c(C(C)Nc2ncnc3[nH]cnc23)cc2cccc(C)c2c1=O (stereo unspecified)	> 10000	–
CCC(Nc1ncnc2[nH]cnc12)c1cc2cccc(C)c2c(=O)n1C(C)C (stereo unspecified)	> 10000	< 100
Cc1cccc2cc(Cn3nc(-c4cc(O)cc(F)c4)c4c(N)ncnc43)n(C3CC3)c(=O)c12	100 to 1000	–
Cc1cccc2cc([C@H](C)Nc3ncnc4[nH]nc(Cl)c34)n(-c3ccccc3)c(=O)c12	> 10000	< 100
CC(Nc1ncnc2[nH]cnc12)c1cc2ccccc2c(=O)n1C1CCN(C)CC1 (stereo unspecified)	–	100 to 1000
Cc1cccc2cc([C@H](C)Nc3ncnc4[nH]cnc34)n(-c3ccccc3)c(=O)c12	–	< 100
Nc1ncnc2c1c(-c1cccc(O)c1)nn2Cc1cc2cccc(F)c2c(=O)n1-c1ccccc1F	–	100 to 1000
Cc1cccc2cc(Cn3nc(C#C[C@@H](C)O)c4c(N)ncnc43)n(C(C)C)c(=O)c12	> 10000	–

Compound	IC50 (PIK3CA (human)) [nM]	IC50 (PIK3CD (Human)) [nM]
Cc1cccc2cc(Cn3nc(-c4cn[nH]c4)c4c(N)ncnc43)n(C3CCN(C)CC3)c(=O)c12	–	100 to 1000
Cc1cccc2cc(C(C)Nc3ncnc4[nH]cnc34)n(C3CCC3)c(=O)c12 (stereo unspecified)	> 10000	< 100
Cc1cccc2cc(Cn3nc(-c4ccc(F)c(O)c4)c4c(N)ncnc43)n(C(C)C)c(=O)c12	> 10000	–
Cc1nc2c(N[C@@H](C)c3cc4cccc(C)c4c(=O)n3-c3ccccc3)ncnc2[nH]1	> 10000	–
Cc1cccc2cc(C(C)Nc3ncnc4[nH]cnc34)n(CCN3CCCC3)c(=O)c12 (stereo unspecified)	–	< 100
Cc1cccc2cc([C@H](C)Nc3nc(N)ncc3F)n(C3CC3)c(=O)c12	> 10000	–
CNC(=O)c1nn(Cc2cc3cccc(C)c3c(=O)n2-c2ccccc2)c2ncnc(N)c12	> 10000	100 to 1000
CCC(Nc1ncnc2[nH]cnc12)c1cc2cccc(C)c2c(=O)n1-c1ccccc1 (stereo unspecified)	> 10000	< 100
Cc1cccc2cc([C@H](C)Nc3nc(Cl)nc4[nH]cnc34)n(-c3ccccc3)c(=O)c12	–	< 100
Cc1cccc2cc(Cn3nc(C#C[C@@H](C)O)c4c(N)ncnc43)n(C3CCCC3)c(=O)c12	> 10000	–
Cc1cccc2cc(Cn3nc(-c4ccc5nc(N)cn5c4)c4c(N)ncnc43)n(-c3ccccc3)c(=O)c12	> 10000	100 to 1000
Cc1cccc2cc(C(C)Nc3ncnc4[nH]cnc34)n(CCN3CCOCC3)c(=O)c12 (stereo unspecified)	–	< 100
Cc1cccc2cc([C@H](C)Nc3c(C#N)cnc4ccccc34)n(-c3ccccc3)c(=O)c12	> 10000	–
CC(=O)Nc1nc2ccc(-c3nn(Cc4cc5cccc(C)c5c(=O)n4-c4ccccc4)c4ncnc(N)c34)cc2s1	100 to 1000	–
Cc1cccnc1-n1c(Cn2nc(-c3ccc(Cl)c(O)c3)c3c(N)ncnc32)cc2cccc(C)c2c1=O	> 10000	–
Cc1cccc2cc(Cn3nc(C(N)=O)c4c(N)ncnc43)n(-c3ccccc3)c(=O)c12	–	100 to 1000
CCC(Nc1ncnc2[nH]cnc12)c1cc2cccc(C)c2c(=O)n1C1CCN(C)CC1 (stereo unspecified)	> 10000	100 to 1000
Cc1ccccc1-n1c(Cn2nc(-c3cc(O)cc(F)c3)c3c(N)ncnc32)cc2ccccc2c1=O	> 10000	–
Cc1cccc2cc([C@H](C)Nc3nc(N)ncc3Cl)n(-c3ccccc3)c(=O)c12	> 10000	< 100
Cc1cccc2cc([C@H](C)NC(=O)c3cnn4ccccc34)n(-c3ccccc3)c(=O)c12	> 10000	> 10000
Cc1cccc2cc(Cn3nc(I)c4c(N)ncnc43)n(C3CCCC3)c(=O)c12	–	100 to 1000
Cc1cccc2cc(C(C)Nc3ncnc4[nH]cnc34)n(C3CCCC3)c(=O)c12 (stereo unspecified)	–	< 100
Cc1cccc2cc(C(C)Nc3ncnc4[nH]cnc34)n(-c3ccccc3F)c(=O)c12 (stereo unspecified)	> 10000	–
Cc1cccc2cc([C@@H](C)Nc3ncnc4[nH]cnc34)n(C3CC3)c(=O)c12	–	> 10000
Cc1cccc2cc(Cn3nc(-c4cc(O)cc(F)c4)c4c(N)ncnc43)n(C3CCCCC3)c(=O)c12	> 10000	–

The next lines start with the values.

IC50 (PIK3CA (human)) [nM]	IC50 (PIK3CD (Human)) [nM]	Compound
> 10000	–	Cc1ccccc1-n1c(Cn2nc(-c3ccc(O)c(F)c3)c3c(N)ncnc32)cc2cccc(C)c2c1=O
> 10000	–	Cc1cccc2cc(Cn3nc(-c4cccc(O)c4)c4c(N)ncnc43)n(-c3ccccc3O)c(=O)c12
–	< 100	Cc1ccccc1-n1c(Cn2nc(-c3ccc4nc(N)[nH]c4c3)c3c(N)ncnc32)cc2cccc(C)c2c1=O
> 10000	–	Cc1ccccc1-n1c(Cn2nc(-c3cn[nH]c3)c3c(N)ncnc32)cc2cccc(C)c2c1=O
100 to 1000	–	Cc1ccccc1-n1c(Cn2nc(-c3ccc4nc(N)ccc4c3)c3c(N)ncnc32)cc2cccc(C)c2c1=O
–	< 100	CCc1nn(Cc2cc3cccc(C)c3c(=O)n2-c2ccccc2)c2ncnc(N)c12
100 to 1000	–	Cc1ccccc1-n1c(Cn2nc(-c3ccc4nc(N)sc4c3)c3c(N)ncnc32)cc2cccc(C)c2c1=O
> 10000	100 to 1000	Cc1ccccc1-n1c(Cn2nc(CO)c3c(N)ncnc32)cc2cccc(C)c2c1=O
–	< 100	Cc1ccccc1-n1c(Cn2nc(-c3ccc4nc(N)oc4c3)c3c(N)ncnc32)cc2cccc(C)c2c1=O
100 to 1000	< 100	Cc1ccccc1-n1c(Cn2nc(-c3ccc4oc(N)nc4c3)c3c(N)ncnc32)cc2cccc(C)c2c1=O
–	< 100	Cc1ccccc1-n1c(Cn2nc(-c3nn[nH]n3)c3c(N)ncnc32)cc2cccc(C)c2c1=O
> 10000	–	COc1ccccc1-n1c(Cn2nc(-c3cccc(O)c3)c3c(N)ncnc32)cc2cccc(C)c2c1=O
> 10000	100 to 1000	Cc1cccnc1-n1c(Cn2nc(Cl)c3c(N)ncnc32)cc2cccc(C)c2c1=O
> 10000	100 to 1000	COc1ccc(-c2nn(Cc3cc4cccc(C)c4c(=O)n3-c3ccccc3C)c3ncnc(N)c23)cc1
> 10000	–	Cc1ccccc1-n1c(Cn2nc(-c3ccc(Cl)c(O)c3)c3c(N)ncnc32)cc2cccc(C)c2c1=O
> 10000	–	Cc1ccccc1-n1c(Cn2nc(-c3ccc(O)c(Cl)c3)c3c(N)ncnc32)cc2cccc(C)c2c1=O
> 10000	–	Cc1ccccc1-n1c(Cn2nc(-c3cccc(O)c3)c3c(N)ncnc32)cc2cccc(C)c2c1=O

IC50 (PIK3CA (human)) [nM]	IC50 (PIK3CD (Human)) [nM]	Compound
> 10000	100 to 1000	Cc1ccccc1-n1c(Cn2nc(C#C[C@@H](C)O)c3c(N)ncnc32)cc2ccccc2c1=O
> 10000	100 to 1000	Cc1cccnc1-n1c(Cn2nc(Br)c3c(N)ncnc32)cc2cccc(C)c2c1=O
> 10000	–	Cc1ccccc1-n1c(Cn2nc(C=CC(N)=O)c3c(N)ncnc32)cc2cccc(C)c2c1=O
–	< 100	Cc1ccccc1-n1c(Cn2nc(C(F)F)c3c(N)ncnc32)cc2cccc(C)c2c1=O
> 10000	–	Cc1ccccc1-n1c(Cn2nc(-c3ccc(F)c(O)c3)c3c(N)ncnc32)cc2cccc(C)c2c1=O
> 10000	–	Cc1ccccc1-n1c(Cn2nc(I)c3c(N)ncnc32)cc2cccc(C)c2c1=O
> 10000	–	Cc1ccccc1-n1c(Cn2nc(-c3ccc4cc[nH]c4c3)c3c(N)ncnc32)cc2cccc(C)c2c1=O
> 10000	–	Cc1cccc2cc(Cn3nc(-c4cccc(O)c4)c4c(N)ncnc43)n(-c3ccccc3Cl)c(=O)c12
> 10000	–	Cc1cccc2cc(Cn3nc(C#C[C@@H](C)O)c4c(N)ncnc43)n(-c3ccccc3C(C)C)c(=O)c12
> 10000	> 10000	COCc1nn(Cc2cc3cccc(C)c3c(=O)n2-c2ccccc2C)c2ncnc(N)c12
> 10000	100 to 1000	Cc1ccccc1-n1c(Cn2nc(I)c3c(N)ncnc32)cc2ccccc2c1=O
–	< 100	CC(=O)Nc1nc2ccc(-c3nn(Cc4cc5cccc(C)c5c(=O)n4-c4ccccc4C)c4ncnc(N)c34)cc2[nH]1
> 10000	–	Cc1ccccc1-n1c(Cn2nc(Br)c3c(N)ncnc32)cc2cccc(C)c2c1=O
> 10000	100 to 1000	CC(=O)Nc1nc2cc(-c3nn(Cc4cc5cccc(C)c5c(=O)n4-c4ccccc4C)c4ncnc(N)c34)ccc2s1
–	100 to 1000	Cc1cccc2cc(Cn3nc(C#CC4CC4)c4c(N)ncnc43)n(-c3ccccc3F)c(=O)c12
> 10000	–	Cc1ccccc1-n1c(Cn2nc(-c3cnc4[nH]ccc4c3)c3c(N)ncnc32)cc2cccc(C)c2c1=O
